#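 Where inhibition never reached the appropriate level, the endpoint shown equals the highest concentration tested. Otherwise, values were interpolated linearly from a five-concentration, 48-hour dose response in 96-well plates. GI50 marks 50% less growth. TGI marks complete inhibition of growth.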
# Assays:
# Experiment in all cases: NCI-60 cell line screen, 48 h
# 786-0 renal = test system: 786-0 renal
# A498 renal = test system: A498 renal
# A549 NSCLC = test system: A549 NSCLC
# ACHN renal = test system: ACHN renal
# BT-549 breast = test system: BT-549 breast
# CAKI-1 renal = test system: CAKI-1 renal
# DU-145 prostate = test system: DU-145 prostate
# EKVX NSCLC = test system: EKVX NSCLC
# HCC-2998 colon = test system: HCC-2998 colon
# HCT-116 colon = test system: HCT-116 colon
# HCT-15 colon = test system: HCT-15 colon
# HOP-62 NSCLC = test system: HOP-62 NSCLC
# HOP-92 NSCLC = test system: HOP-92 NSCLC
# HS 578T breast = test system: HS 578T breast
# IGROV1 ovarian = test system: IGROV1 ovarian
# KM12 colon = test system: KM12 colon
# M14 melanoma = test system: M14 melanoma
# MALME-3M melanoma = test system: MALME-3M melanoma
# MCF7 breast = test system: MCF7 breast
# MDA-MB-435 = test system: MDA-MB-435
# NCI-H226 lung = test system: NCI-H226 lung
# NCI-H23 lung = test system: NCI-H23 lung
# NCI-H460 lung = test system: NCI-H460 lung
# NCI-H522 lung = test system: NCI-H522 lung
# NCI/ADR-RES ovarian = test system: NCI/ADR-RES ovarian
# OVCAR-3 ovarian = test system: OVCAR-3 ovarian
# OVCAR-4 ovarian = test system: OVCAR-4 ovarian
# OVCAR-5 ovarian = test system: OVCAR-5 ovarian
# OVCAR-8 ovarian = test system: OVCAR-8 ovarian
# RPMI-8226 leukemia = test system: RPMI-8226 leukemia
# RXF 393 renal = test system: RXF 393 renal
# SF-268 CNS = test system: SF-268 CNS
# SF-295 CNS = test system: SF-295 CNS
# SF-539 CNS = test system: SF-539 CNS
# SK-MEL-2 melanoma = test system: SK-MEL-2 melanoma
# SK-OV-3 ovarian = test system: SK-OV-3 ovarian
# SN12C renal = test system: SN12C renal
# SR leukemia = test system: SR leukemia
# TK-10 renal = test system: TK-10 renal
# U251 CNS = test system: U251 CNS
# UACC-257 melanoma = test system: UACC-257 melanoma
# UO-31 renal = test system: UO-31 renal
# HL-60(TB) leukemia = test system: HL-60(TB) leukemia
# MDA-MB-231 breast = test system: MDA-MB-231 breast
# SNB-75 CNS = test system: SNB-75 CNS
# T-47D breast = test system: T-47D breast
# LOX IMVI melanoma = test system: LOX IMVI melanoma
# PC-3 prostate = test system: PC-3 prostate
# SK-MEL-28 melanoma = test system: SK-MEL-28 melanoma
# SK-MEL-5 melanoma = test system: SK-MEL-5 melanoma
# SNB-19 CNS = test system: SNB-19 CNS
# UACC-62 melanoma = test system: UACC-62 melanoma
structure (smiles),measurement,setting,value
CN(C)c1ccc(C(O)C2=CC(=O)c3ccccc3C2=O)cc1 (stereo unspecified),GI50,786-0 renal,14.4 µM
same,TGI,786-0 renal,34.6 µM
same,GI50,A498 renal,15.1 µM
same,TGI,A498 renal,63 µM
same,GI50,A549 NSCLC,30.3 µM
same,TGI,A549 NSCLC,> 100 µM
same,GI50,ACHN renal,3690 nM
same,TGI,ACHN renal,31.8 µM
same,GI50,BT-549 breast,2580 nM
same,TGI,BT-549 breast,6.25 µM
same,GI50,CAKI-1 renal,7.87 µM
same,TGI,CAKI-1 renal,32.1 µM
same,GI50,DU-145 prostate,2230 nM
same,TGI,DU-145 prostate,6.27 µM
same,GI50,EKVX NSCLC,5.37 µM
same,TGI,EKVX NSCLC,92.9 µM
same,GI50,HCC-2998 colon,17 µM
same,TGI,HCC-2998 colon,38.7 µM
same,GI50,HCT-116 colon,17.8 µM
same,TGI,HCT-116 colon,37 µM
same,GI50,HCT-15 colon,4.3 µM
same,TGI,HCT-15 colon,> 100 µM
same,GI50,HOP-62 NSCLC,23.1 µM
same,TGI,HOP-62 NSCLC,64.7 µM
same,GI50,HOP-92 NSCLC,1560 nM
same,TGI,HOP-92 NSCLC,4.16 µM
same,GI50,HS 578T breast,509 nM
same,TGI,HS 578T breast,> 100 µM
same,GI50,IGROV1 ovarian,1940 nM
same,TGI,IGROV1 ovarian,4.52 µM
same,GI50,KM12 colon,13.7 µM
same,TGI,KM12 colon,91.4 µM
same,GI50,M14 melanoma,15.4 µM
same,TGI,M14 melanoma,29.4 µM
same,GI50,MALME-3M melanoma,24.2 µM
same,TGI,MALME-3M melanoma,56.7 µM
same,GI50,MCF7 breast,4.7 µM
same,TGI,MCF7 breast,> 100 µM
same,GI50,MDA-MB-435,5.94 µM
same,TGI,MDA-MB-435,28 µM
same,GI50,NCI-H226 lung,3010 nM
same,TGI,NCI-H226 lung,14.2 µM
same,GI50,NCI-H23 lung,27.2 µM
same,TGI,NCI-H23 lung,97.5 µM
same,GI50,NCI-H460 lung,51.9 µM
same,TGI,NCI-H460 lung,> 100 µM
same,GI50,NCI-H522 lung,2820 nM
same,TGI,NCI-H522 lung,9.2 µM
same,GI50,NCI/ADR-RES ovarian,> 100 µM
same,TGI,NCI/ADR-RES ovarian,> 100 µM
same,GI50,OVCAR-3 ovarian,2750 nM
same,GI50,OVCAR-4 ovarian,4.51 µM
same,TGI,OVCAR-4 ovarian,> 100 µM
same,GI50,OVCAR-5 ovarian,22.4 µM
same,TGI,OVCAR-5 ovarian,52.4 µM
same,GI50,OVCAR-8 ovarian,11.6 µM
same,TGI,OVCAR-8 ovarian,32.8 µM
same,GI50,RPMI-8226 leukemia,3690 nM
same,TGI,RPMI-8226 leukemia,66.8 µM
same,GI50,RXF 393 renal,4290 nM
same,TGI,RXF 393 renal,56.6 µM
same,GI50,SF-268 CNS,> 100000 nM
same,TGI,SF-268 CNS,> 100 µM
same,GI50,SF-295 CNS,25.1 µM
same,TGI,SF-295 CNS,93.3 µM
same,GI50,SF-539 CNS,2600 nM
same,TGI,SF-539 CNS,6.08 µM
same,GI50,SK-MEL-2 melanoma,2880 nM
same,TGI,SK-MEL-2 melanoma,11.7 µM
same,GI50,SK-OV-3 ovarian,3.07 µM
same,TGI,SK-OV-3 ovarian,15.5 µM
same,GI50,SN12C renal,1560 nM
same,TGI,SN12C renal,4.54 µM
same,GI50,SR leukemia,1880 nM
same,TGI,SR leukemia,4.49 µM
same,GI50,TK-10 renal,12.1 µM
same,TGI,TK-10 renal,44.3 µM
same,GI50,U251 CNS,1740 nM
same,TGI,U251 CNS,> 100 µM
same,GI50,UACC-257 melanoma,18.4 µM
same,TGI,UACC-257 melanoma,41 µM
same,GI50,UO-31 renal,6.46 µM
same,TGI,UO-31 renal,19.3 µM
Nc1nccc2c([N+](=O)[O-])cccc12,GI50,A498 renal,31.7 µg/mL
same,GI50,EKVX NSCLC,5.93 µg/mL
same,TGI,EKVX NSCLC,48.8 µg/mL
same,GI50,HCT-116 colon,84.3 µg/mL
same,GI50,HL-60(TB) leukemia,78.3 µg/mL
same,GI50,HOP-62 NSCLC,61.5 µg/mL
same,GI50,HOP-92 NSCLC,21.4 µg/mL
same,GI50,HS 578T breast,52 µg/mL
same,GI50,IGROV1 ovarian,86.3 µg/mL
same,GI50,MDA-MB-231 breast,92 µg/mL
same,GI50,NCI-H226 lung,87.4 µg/mL
same,GI50,RPMI-8226 leukemia,40.4 µg/mL
same,GI50,RXF 393 renal,87.4 µg/mL
same,GI50,SN12C renal,92.9 µg/mL
same,GI50,SNB-75 CNS,55.3 µg/mL
same,GI50,SR leukemia,25.7 µg/mL
same,GI50,T-47D breast,77.1 µg/mL
same,GI50,UO-31 renal,53.4 µg/mL
Cn1cnnc1[S-].[Au+].c1ccc([PH+](c2ccccc2)c2ccccc2)cc1,GI50,786-0 renal,1.72 µM
same,TGI,786-0 renal,3.15 µM
same,GI50,A549 NSCLC,2.92 µM
same,TGI,A549 NSCLC,21.3 µM
same,GI50,ACHN renal,1770 nM
same,TGI,ACHN renal,3.16 µM
same,GI50,BT-549 breast,1410 nM
same,TGI,BT-549 breast,2.76 µM
same,GI50,CAKI-1 renal,1.5 µM
same,TGI,CAKI-1 renal,2.82 µM
same,GI50,DU-145 prostate,1340 nM
same,TGI,DU-145 prostate,2.66 µM
same,GI50,HCC-2998 colon,1.8 µM
same,TGI,HCC-2998 colon,3.23 µM
same,GI50,HCT-116 colon,1.72 µM
same,TGI,HCT-116 colon,3.26 µM
same,GI50,HL-60(TB) leukemia,1480 nM
same,TGI,HL-60(TB) leukemia,4.44 µM
same,GI50,HOP-92 NSCLC,1880 nM
same,TGI,HOP-92 NSCLC,3.31 µM
same,GI50,KM12 colon,1.71 µM
same,TGI,KM12 colon,3.22 µM
same,GI50,LOX IMVI melanoma,1350 nM
same,TGI,LOX IMVI melanoma,2710 nM
same,GI50,M14 melanoma,1.4 µM
same,TGI,M14 melanoma,2.99 µM
same,GI50,MALME-3M melanoma,1.49 µM
same,TGI,MALME-3M melanoma,2.91 µM
same,GI50,MDA-MB-231 breast,1670 nM
same,TGI,MDA-MB-231 breast,3.08 µM
same,GI50,MDA-MB-435,1.57 µM
same,TGI,MDA-MB-435,2.98 µM
same,GI50,NCI-H226 lung,2750 nM
same,TGI,NCI-H226 lung,9.08 µM
same,GI50,OVCAR-3 ovarian,1790 nM
same,TGI,OVCAR-3 ovarian,3.18 µM
same,GI50,OVCAR-5 ovarian,1.88 µM
same,TGI,OVCAR-5 ovarian,3.49 µM
same,GI50,PC-3 prostate,1520 nM
same,TGI,PC-3 prostate,3.02 µM
same,GI50,RPMI-8226 leukemia,1690 nM
same,TGI,RPMI-8226 leukemia,5.39 µM
same,GI50,RXF 393 renal,1420 nM
same,TGI,RXF 393 renal,2.8 µM
same,GI50,SF-268 CNS,1700 nM
same,TGI,SF-268 CNS,3.44 µM
same,GI50,SF-295 CNS,1.85 µM
same,TGI,SF-295 CNS,3.82 µM
same,GI50,SF-539 CNS,1610 nM
same,TGI,SF-539 CNS,3 µM
same,GI50,SK-MEL-2 melanoma,1600 nM
same,TGI,SK-MEL-2 melanoma,3.17 µM
same,GI50,SK-MEL-28 melanoma,1520 nM
same,TGI,SK-MEL-28 melanoma,2910 nM
same,GI50,SK-MEL-5 melanoma,1460 nM
same,TGI,SK-MEL-5 melanoma,2910 nM
same,GI50,SN12C renal,1700 nM
same,TGI,SN12C renal,3.12 µM
same,GI50,SNB-19 CNS,1620 nM
same,TGI,SNB-19 CNS,3.02 µM
same,GI50,SNB-75 CNS,1430 nM
same,TGI,SNB-75 CNS,2740 nM
same,GI50,TK-10 renal,1.72 µM
same,TGI,TK-10 renal,3.2 µM
same,GI50,UACC-257 melanoma,1.35 µM
same,TGI,UACC-257 melanoma,2.94 µM
same,GI50,UACC-62 melanoma,1260 nM
same,TGI,UACC-62 melanoma,2550 nM
same,GI50,UO-31 renal,1.65 µM
same,TGI,UO-31 renal,3.01 µM

# — PubChem BioAssay (NCI)
